Experimental data: US9975868B2, “7,8-dihydoxyflavone and 7,8-substituted flavone derivatives, compositions, and methods related thereto” (EMORY UNIVERSITY, priority 2012, dated 2018)
“Also recorded” adds a separate entry of the source.

Experiments:
[1] = in vivo PK study, plasma 7,8-DHF after oral administration; set-up: species or system mice
Method: Two months old mice were orally administrated 78 mg/kg of the R7, and mice were sacrificed at different time points (n=3), the plasma was then harvested and analyzed by HPLC/MS.
Derivatives with various moieties on the catechol group in 7,8-DHF were synthesized. These derivatives were monitored for intestine microsomal stability, liver microsomal stability and plasma stability.

[2] = brain 7,8-DHF concentration after oral administration; assay type: in vivo, mice
[3] = test system: mouse model of Alzheimer's disease; conditions: cited from earlier work
[4] = chemical stability in pH 1.2 and 7.4 buffer; assay type: physicochemical
Method: Metabolism studies indicate that the catechol group is conjugated by glucuronidation, sulfation and methylation in liver, which leads to the poor oral bioavailability upon oral administration. […] Most of 7,8-DHF is conjugated and metabolized within 30 min. Derivatives with various moieties on the catechol group in 7,8-DHF were synthesized. These derivatives were monitored for intestine microsomal stability, liver microsomal stability and plasma stability. In addition, compounds with favorable chemical stability and Caco-2 permeability were examined.
R7 and R13 were chosen to analyze their in vivo PK profiles. The concentration of 7,8-DHF's in brain was examined at different time points after oral administrated 72.5 mg/kg, which is the molecular equivalent of 50 mg/kg of 7,8-DHF. In plasma, 7,8-DHF peaked at around 100 min for R13, whereas administration of the parent compound 7,8-DHF, occurred at 10 min. The oral bioavailability of R13 was around 10%.

TrkB = molecular target: T1, TrkB (Mus musculus, UniProt P15209); experiment: TrkB signaling in mouse brain by immunoblotting after oral administration; assay type: in vivo; conditions: R7 78 mg/kg oral
T1 construct: from tissue; host or cells: mouse brain (lysates after oral dosing)
T1 sequence (P15209 32-821): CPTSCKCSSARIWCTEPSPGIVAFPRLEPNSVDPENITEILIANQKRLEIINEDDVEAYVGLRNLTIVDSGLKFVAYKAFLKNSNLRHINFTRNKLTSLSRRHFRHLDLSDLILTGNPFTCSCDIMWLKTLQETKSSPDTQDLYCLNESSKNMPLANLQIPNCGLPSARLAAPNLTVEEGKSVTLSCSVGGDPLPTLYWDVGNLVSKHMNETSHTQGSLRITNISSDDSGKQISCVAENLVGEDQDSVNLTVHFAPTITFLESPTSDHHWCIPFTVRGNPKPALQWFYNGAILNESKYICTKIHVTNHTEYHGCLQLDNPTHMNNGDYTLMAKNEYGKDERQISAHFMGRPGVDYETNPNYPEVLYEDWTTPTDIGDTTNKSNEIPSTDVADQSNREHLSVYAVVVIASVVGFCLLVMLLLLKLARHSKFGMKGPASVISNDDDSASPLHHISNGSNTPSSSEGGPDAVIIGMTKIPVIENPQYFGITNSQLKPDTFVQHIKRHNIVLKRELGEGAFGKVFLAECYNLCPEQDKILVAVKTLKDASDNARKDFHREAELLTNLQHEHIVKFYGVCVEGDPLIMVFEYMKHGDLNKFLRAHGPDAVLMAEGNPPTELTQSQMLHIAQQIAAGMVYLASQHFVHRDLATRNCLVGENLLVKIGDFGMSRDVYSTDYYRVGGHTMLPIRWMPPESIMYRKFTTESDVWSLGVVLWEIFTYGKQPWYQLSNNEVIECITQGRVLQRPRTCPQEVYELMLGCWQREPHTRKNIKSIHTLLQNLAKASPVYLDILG
Method: R7 (78 mg/kg equal to about 50 mg/kg of 7,8-DHF) was administered orally. The mice were sacrificed at different intervals. The brain lysates were analyzed by immunobotting with various antibodies including p-TrkB 816, Total TrkB, p-Akt and total Akt.
The TrkB signaling in mouse brains was monitored from the in vivo PK study. […] The pharmacodynamic (PD) study fits well with the in vivo PK data, underscoring that the released 7,8-DHF from R7 triggers the long-lasting TrkB signalings in mouse brain.

Structure (SMILES): O=c1cc(-c2ccccc2)oc2c(O)c(O)ccc12 [7,8-DHF, 7,8-dihydroxyflavone, reference compound]
- time within which most is conjugated and metabolized ([1]; C57BL6, mouse, in vivo): ≤ 30 min
- bioavailability ([1]; C57BL6, mouse, in vivo, po): ~5%
- 7,8-DHF detectability in brain ([2]; oral administration of parent compound): not detectable after 4 h
- memory deficits and BACE1 elevation [3]: reverses

Structure (SMILES): CNC(=O)Oc1ccc2c(=O)cc(-c3ccccc3)oc2c1OC(=O)NC [R13, 4-oxo-2-phenyl-4H-chromene-7,8-diyl bis(methylcarbamate)]
- 7,8-DHF oral bioavailability and brain concentrations versus parent compound ([2]; FIG. 4, oral administration): improves
- 7,8-DHF brain availability ([2]; oral 72.5 mg/kg): significantly elongated

Structure (SMILES): CN(C)C(=O)Oc1ccc2c(=O)cc(-c3ccccc3)oc2c1OC(=O)N(C)C [R7, 4-oxo-2-phenyl-4H-chromene-7,8-diyl bis(dimethylcarbamate)]
- 7,8-DHF plasma concentrations compared with parent compound ([1]; R7 78 mg/kg vs 7,8-DHF 50 mg/kg P.O.): higher than parent compound
- 7,8-DHF detectable in plasma ([1]; at 8 h after oral R7): detectable
- chemical stability in buffer ([4]; pH 1.2): stable
- chemical stability in buffer ([4]; pH 7.4): stable
- TrkB activation (p-TrkB) in mouse brain (TrkB): potently activated; also recorded: triggers TrkB activation
- downstream p-Akt signaling activation in mouse brain (TrkB): potently activated; also recorded: downstream Akt signaling activation
